Measurements: patent US10869931B2, “Polyethylene glycol-modified angiogenesis inhibitor HM-1 and application thereof” (NANJING ANJI BIOLOGICAL TECHNOLOGY CO.,LTD, priority 2016, dated 2020)
Marks after values point to notes of the source that are not given here. Where no end group is shown, it is not given here.

Experiments:
[1] = in vivo
[2] = test system: retinal neovascular clusters in OIR C57/B16 mice; assay: Retinal blood vessels in OIR mice; assay type: in vivo, mouse; conditions: for Neovascular clusters area: retina evaluated on day 17; for Inhibition rate: neovascular clusters area vs control, day 17
Method in brief: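 C57/B16 pups and mothers were held in 75% oxygen from postnatal day 7 to 12, then returned to room air. On day 13 the PEGylated HM-1 conjugates or saline were given by intravitreal injection; on day 17 retinal vessels were assessed after intracardiac Texas Red-tomato lectin, circulated 5 min.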

[3] = test system: choroidal neovascularization in BN rats; assay: Laser-induced choroidal neovascularization in BN rats (FFA); assay type: in vivo, rat
Method in brief: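 Male BN rats (6–8 weeks) received 8 laser photocoagulation spots per eye around the optic disc (647.1 nm, 350 mW, 50 μm, 0.05 s). Confirmed models, 5 per group, were given saline or PEG-modified HM-1 intravitreally once daily for 1 week. FFA was done 3, 7, 14 and 28 days after dosing.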

[4] = test system: IL-1β production by mouse peritoneal macrophages; assay: IL-1β production by mouse peritoneal macrophages (ELISA); assay type: cell-based; conditions: 48 h
Method in brief: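 Starch-elicited mouse peritoneal macrophages (2×10^6 cells/mL), adhered 3 h, treated with low, medium and high concentrations of mPEG-HM-1 for 48 h; dexamethasone as positive control. Supernatant IL-1β quantified by sandwich ELISA at OD450.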

[5] = test system: carrageenan-induced toe swelling in SD rats; assay: Carrageenan-induced acute toe swelling in rats; assay type: in vivo, rat; parameters: Swelling: unit not given here
Method in brief: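 SD rats dosed with mPEG-HM-1 once daily for 3 days […]; 1 h after last dose, 0.1 mL 1% carrageenan injected subcutaneously into right hind paw. Paw volume measured by liquid displacement at 1, 3, 5 and 7 h; swelling = post- minus pre-inflammation volume (mL).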

[6] = 20 mg/kg once a day for 3 days, 1 h after carrageenan
[7] = 20 mg/kg once a day for 3 days, 3 h after carrageenan
[8] = 20 mg/kg once a day for 3 days, 5 h after carrageenan
[9] = 20 mg/kg once a day for 3 days, 7 h after carrageenan
[10] = 40 mg/kg once a day for 3 days, 1 h after carrageenan
[11] = 40 mg/kg once a day for 3 days, 3 h after carrageenan
[12] = 40 mg/kg once a day for 3 days, 5 h after carrageenan
[13] = 40 mg/kg once a day for 3 days, 7 h after carrageenan
[14] = 80 mg/kg once a day for 3 days, 1 h after carrageenan
[15] = 80 mg/kg once a day for 3 days, 3 h after carrageenan
[16] = 80 mg/kg once a day for 3 days, 5 h after carrageenan
[17] = 80 mg/kg once a day for 3 days, 7 h after carrageenan

mPEG-SC5k-Arg-Gly-Ala-Asp-Arg-Ala-Gly-Gly-Gly-Gly-Arg-Gly-Asp ({mPEG‑SC 5 kDa}-RGADRAGGGGRGD) [mPEG-SC5k-HM-1]
AUC0-∞ [1]: 4391.72 ± 12.85 mg/L/h | CL [1]: 0.0598 ± 0.0108 L/h/kg | MRT0-∞ [1]: 7.68 ± 2.97 h | T1/2β (half-life) [1]: 8.31 ± 0.12 h | Neovascular clusters area ([2]; 25 μg intravitreal injection on day 13): 0.116 ± 0.012 mm^2 | Inhibition rate ([2]; 25 μg intravitreal): 47.42%* | CNV Incidence rate ([3]; Day 3 after administration, 25 μg intravitreally once daily for 1 week (Table 53)): 54.73% | leakage Spots # ([3]; Day 3 after administration, 25 μg intravitreally once daily for 1 week (Table 53), total spots 290-296 by table): 162 | CNV Incidence rate ([3]; Day 7, 25 μg intravitreally once daily for 1 week (Table 53)): 53.19% | leakage Spots # ([3]; Day 7, 25 μg intravitreally once daily for 1 week (Table 53), total spots 182-188 by table): 100 | CNV Incidence rate ([3]; Day 14, 25 μg intravitreally once daily for 1 week (Table 53)): 48.15% | leakage Spots # ([3]; Day 14, 25 μg intravitreally once daily for 1 week (Table 53), total spots 132-138 by table): 65 | CNV Incidence rate ([3]; Day 28, 25 μg intravitreally once daily for 1 week (Table 53)): 47.76% | leakage Spots # ([3]; Day 28, 25 μg intravitreally once daily for 1 week (Table 53), total spots 67-71 by table): 32 | IL-1β ([4]; 5 μg/mL): 762.83 ± 15.46 pg/mL | Inhibition Rate of IL-1β production ([4]; 5 μg/mL): 18.59% | IL-1β ([4]; 10 μg/mL): 678.12 ± 12.09 pg/mL | Inhibition Rate of IL-1β production ([4]; 10 μg/mL): 27.63% | IL-1β ([4]; 20 μg/mL): 561.18 ± 13.21 pg/mL | Inhibition Rate of IL-1β production ([4]; 20 μg/mL): 40.11% | Swelling ([5]; 10 mg/kg once a day for 3 days, 1 h after carrageenan): 0.24 ± 0.12 | Swelling ([5]; 10 mg/kg once a day for 3 days, 3 h after carrageenan): 0.37 ± 0.14 | Swelling ([5]; 10 mg/kg once a day for 3 days, 5 h after carrageenan): 0.42 ± 0.16 | Swelling ([5]; 10 mg/kg once a day for 3 days, 7 h after carrageenan): 0.32 ± 0.13 | Swelling [5, 6]: 0.23 ± 0.10 | Swelling [5, 7]: 0.33 ± 0.20 | Swelling [5, 8]: 0.38 ± 0.13 | Swelling [5, 9]: 0.34 ± 0.15

mPEG-SC10k-Arg-Gly-Ala-Asp-Arg-Ala-Gly-Gly-Gly-Gly-Arg-Gly-Asp ({mPEG‑SC 10 kDa}-RGADRAGGGGRGD) [mPEG-SC10k-HM-1]
AUC0-∞ [1]: 4671.86 ± 10.76 mg/L/h | CL [1]: 0.0273 ± 0.0056 L/h/kg | MRT0-∞ [1]: 12.67 ± 5.84 h | T1/2β (half-life) [1]: 15.18 ± 0.11 h | Neovascular clusters area ([2]; 50 μg intravitreal injection on day 13): 0.096 ± 0.008 mm^2 | Inhibition rate ([2]; 50 μg intravitreal): 56.56%** | inhibition rate of retinal neovascular clusters ([2]; OIR mice, 50 μg intravitreal injection, evaluated day 17): 56.56% | incidence of CNV ([3]; BN rats, 28 days after administration, intravitreal once daily for 1 week): 38.81% | CNV Incidence rate ([3]; Day 3 after administration, 50 μg intravitreally once daily for 1 week (Table 53)): 49.66% | leakage Spots # ([3]; Day 3 after administration, 50 μg intravitreally once daily for 1 week (Table 53), total spots 290-296 by table): 147 | CNV Incidence rate ([3]; Day 7, 50 μg intravitreally once daily for 1 week (Table 53)): 45.74% | leakage Spots # ([3]; Day 7, 50 μg intravitreally once daily for 1 week (Table 53), total spots 182-188 by table): 86 | CNV Incidence rate ([3]; Day 14, 50 μg intravitreally once daily for 1 week (Table 53)): 42.96% | leakage Spots # ([3]; Day 14, 50 μg intravitreally once daily for 1 week (Table 53), total spots 132-138 by table): 58 | CNV Incidence rate ([3]; Day 28, 50 μg intravitreally once daily for 1 week (Table 53)): 38.81% | leakage Spots # ([3]; Day 28, 50 μg intravitreally once daily for 1 week (Table 53), total spots 67-71 by table): 26 | IL-1β ([4]; 10 μg/mL): 758.05 ± 15.18 pg/mL | Inhibition Rate of IL-1β production ([4]; 10 μg/mL): 19.10% | IL-1β ([4]; 20 μg/mL): 666.50 ± 11.93 pg/mL | Inhibition Rate of IL-1β production ([4]; 20 μg/mL): 28.87% | IL-1β ([4]; 40 μg/mL): 553.03 ± 14.12 pg/mL | Inhibition Rate of IL-1β production ([4]; 40 μg/mL): 40.98% | Swelling [5, 6]: 0.25 ± 0.11 | Swelling [5, 7]: 0.38 ± 0.15 | Swelling [5, 8]: 0.43 ± 0.17 | Swelling [5, 9]: 0.31 ± 0.11 | Swelling [5, 10]: 0.22 ± 0.09 | Swelling [5, 11]: 0.32 ± 0.19 | Swelling [5, 12]: 0.37 ± 0.12 | Swelling [5, 13]: 0.34 ± 0.13

mPEG-SC20k-Arg-Gly-Ala-Asp-Arg-Ala-Gly-Gly-Gly-Gly-Arg-Gly-Asp ({mPEG‑SC 20 kDa}-RGADRAGGGGRGD) [mPEG-SC20k-HM-1]
AUC0-∞ [1]: 4310.23 ± 12.98 mg/L/h | CL [1]: 0.0135 ± 0.0093 L/h/kg | MRT0-∞ [1]: 17.64 ± 12.67 h | T1/2β (half-life) [1]: 21.46 ± 0.24 h | Neovascular clusters area ([2]; 100 μg intravitreal injection on day 13): 0.110 ± 0.010 mm^2 | Inhibition rate ([2]; 100 μg intravitreal): 50.23%** | CNV Incidence rate ([3]; Day 3 after administration, 100 μg intravitreally once daily for 1 week (Table 53)): 51.35% | leakage Spots # ([3]; Day 3 after administration, 100 μg intravitreally once daily for 1 week (Table 53), total spots 290-296 by table): 152 | CNV Incidence rate ([3]; Day 7, 100 μg intravitreally once daily for 1 week (Table 53)): 48.94% | leakage Spots # ([3]; Day 7, 100 μg intravitreally once daily for 1 week (Table 53), total spots 182-188 by table): 92 | CNV Incidence rate ([3]; Day 14, 100 μg intravitreally once daily for 1 week (Table 53)): 45.93% | leakage Spots # ([3]; Day 14, 100 μg intravitreally once daily for 1 week (Table 53), total spots 132-138 by table): 62 | CNV Incidence rate ([3]; Day 28, 100 μg intravitreally once daily for 1 week (Table 53)): 41.79% | leakage Spots # ([3]; Day 28, 100 μg intravitreally once daily for 1 week (Table 53), total spots 67-71 by table): 28 | IL-1β ([4]; 20 μg/mL): 761.42 ± 16.96 pg/mL | Inhibition Rate of IL-1β production ([4]; 20 μg/mL): 18.74% | IL-1β ([4]; 40 μg/mL): 653.20 ± 18.59 pg/mL | Inhibition Rate of IL-1β production ([4]; 40 μg/mL): 30.29% | IL-1β ([4]; 80 μg/mL): 512.27 ± 10.50 pg/mL | Inhibition Rate of IL-1β production ([4]; 80 μg/mL): 45.33% | Swelling [5, 10]: 0.28 ± 0.14 | Swelling [5, 11]: 0.35 ± 0.17 | Swelling [5, 12]: 0.42 ± 0.15 | Swelling [5, 13]: 0.37 ± 0.16 | Swelling [5, 14]: 0.26 ± 0.10 | Swelling [5, 15]: 0.33 ± 0.12 | Swelling [5, 16]: 0.40 ± 0.13 | Swelling [5, 17]: 0.32 ± 0.17 | inhibition of carrageenan-induced toe swelling (in words) ([5]; rats, 80 mg/kg, once a day for 3 days): most effective

mPEG-SC40k-Arg-Gly-Ala-Asp-Arg-Ala-Gly-Gly-Gly-Gly-Arg-Gly-Asp ({mPEG‑SC 40 kDa}-RGADRAGGGGRGD) [mPEG-SC40k-HM-1]
AUC0-∞ [1]: 4365.64 ± 11.06 mg/L/h | CL [1]: 0.0068 ± 0.0047 L/h/kg | MRT0-∞ [1]: 16.36 ± 10.28 h | T1/2β (half-life) [1]: 42.19 ± 0.32 h | Neovascular clusters area ([2]; 200 μg intravitreal injection on day 13): 0.119 ± 0.005 mm^2 | Inhibition rate ([2]; 200 μg intravitreal): 46.18%* | CNV Incidence rate ([3]; Day 3 after administration, 200 μg intravitreally once daily for 1 week (Table 53)): 50.68% | leakage Spots # ([3]; Day 3 after administration, 200 μg intravitreally once daily for 1 week (Table 53), total spots 290-296 by table): 150 | CNV Incidence rate ([3]; Day 7, 200 μg intravitreally once daily for 1 week (Table 53)): 50.00% | leakage Spots # ([3]; Day 7, 200 μg intravitreally once daily for 1 week (Table 53), total spots 182-188 by table): 94 | CNV Incidence rate ([3]; Day 14, 200 μg intravitreally once daily for 1 week (Table 53)): 44.44% | leakage Spots # ([3]; Day 14, 200 μg intravitreally once daily for 1 week (Table 53), total spots 132-138 by table): 60 | CNV Incidence rate ([3]; Day 28, 200 μg intravitreally once daily for 1 week (Table 53)): 43.28% | leakage Spots # ([3]; Day 28, 200 μg intravitreally once daily for 1 week (Table 53), total spots 67-71 by table): 29 | IL-1β ([4]; 40 μg/mL): 774.07 ± 15.32 pg/mL | Inhibition Rate of IL-1β production ([4]; 40 μg/mL): 17.39% | IL-1β ([4]; 80 μg/mL): 670.72 ± 16.71 pg/mL | Inhibition Rate of IL-1β production ([4]; 80 μg/mL): 28.42% | IL-1β ([4]; 160 μg/mL): 553.22 ± 10.82 pg/mL | Inhibition Rate of IL-1β production ([4]; 160 μg/mL): 40.96% | Swelling [5, 14]: 0.25 ± 0.13 | Swelling [5, 15]: 0.34 ± 0.12 | Swelling [5, 16]: 0.44 ± 0.15 | Swelling [5, 17]: 0.34 ± 0.16 | Swelling ([5]; 160 mg/kg once a day for 3 days, 1 h after carrageenan): 0.24 ± 0.12 | Swelling ([5]; 160 mg/kg once a day for 3 days, 3 h after carrageenan): 0.33 ± 0.13 | Swelling ([5]; 160 mg/kg once a day for 3 days, 5 h after carrageenan): 0.43 ± 0.12 | Swelling ([5]; 160 mg/kg once a day for 3 days, 7 h after carrageenan): 0.33 ± 0.13
